The values that follow come from patent publication US5256698A, “Treatment of psychosis using cyclohexyl-phenyl-lower alkyl amine derivatives” (University of Iowa Research Foundation, priority 1990, dated 1993).

Assay [1] relates to sigma binding sites. Particulars: background; cited from earlier work.
A further assay has as its system PCP. Kind of assay: PCP site binding, [^3 H]-TCP. Particulars: for Percent Binding: Table 6 (head from Table 5); for Percent Binding / Percent Inhibition: [^3 H]-TCP; for Percent Inhibition: Average, N = 2. The text has this: (§1) Any number for a psychoactive drug over 50% is considered highly significant. By way of example, the following Table 2 illustrates a percentage of specific binding for certain known psychoactives capable of binding at other binding sites which are responsible for the undesirable side effects often associated with psychoactive agents.
[^3 HTCP is a PCP derivative which selectively labels PCP site; PCP i

The next assay has as its system dopaminergic receptors. Nature of the assay: binding at dopaminergic receptors (summary of dopamine 1 and 2 binding).
Text: as §1

A further assay deals with sigma. Kind of assay: sigma binding capability, [^3 H]-DTG. The settings on record: for Percent Binding: [^3 H]-DTG. As to the method: The compound prepared in Example 1 was tested for sigma binding site inhibition in comparison with Haldol, a knows selective receptor for sigma binding sites. […] In the tests, the compound of Example 1 was then added to the cell system to see how successfully it displaced the radioactive ligands at the sigma binding site. The higher the percentage of radio ligand displaced, the greater the percentage of specific binding at the sigma sites.
The following table illustrates testing of sigma binding capability of bromhexine. Again, the test protocol and procedure were as previously described.

Another assay has as its system Dopamine 1. Nature of the assay: Dopamine 1 binding, [^3 H]-SCH 23390. Particulars: for Percent Binding: Table 6 (head from Table 5); for Percent Inhibition: Average, N = 2.
Text: as §1

In a further assay the test system is Dopamine 2. Nature of the assay: Dopamine 2 binding, [^3 H]-Sulpiride. Particulars: for Percent Binding: Table 6 (head from Table 5); for Percent Inhibition: Average, N = 2.
Text: as §1

Assay [2] deals with sigma binding sites. Nature of the assay: sigma binding site inhibition: displacement of radiolabelled haldol. The settings on record: for binding to the sigma binding site (in words): hydrochloride. As to the method:
The compound prepared in Example 1 was tested for sigma binding site inhibition in comparison with Haldol, a knows selective receptor for sigma binding sites. In particular, a radioligand of haldol was bound to sigma binding sites to provide radio labeled ligands at sigma binding receptor sites of tissue. In the tests, the compound of Example 1 was then added to the cell system to see how successfully it displaced the radioactive ligands at the sigma binding site. The higher the percentage of radio ligand displaced, the greater the percentage of specific binding at the sigma sites.
The compound of Example 2 was tested in a similar fashion to that previously described in order to test comparison with Haldol or sigma binding site activity.

“Also recorded” adds a separate entry of the source.

In the case of `O=C(CCCN1CCC(O)(c2ccc(Cl)cc2)CC1)c1ccc(F)cc1` [haloperidol], the “affinity for sigma binding sites (in words)” value in the assay with sigma binding sites [1] was “high affinity”.
Turning to `CN(Cc1cc(Br)cc(Br)c1N)C1CCCCC1` [bromhexine, reference compound], in the assay with PCP, the “binding to PCP sites (in words)” value was “negligible”. The “Percent Binding” value is recorded as -2.5% in the assay with PCP (10^-5 M, 10 µM); 0.2% in the assay on PCP (10^-7 M, 0.1 µM); -13.6% in the assay on PCP (10^-9 M, 0.001 µM); 90.8% in the assay with sigma (10^-5 M, 10 µM); 45.1% in the assay on sigma (10^-7 M, 0.1 µM); 24.8% in the assay with sigma (10^-9 M, 0.001 µM). Also, the “Percent Binding” value in the assay on Dopamine 1 (10^-5 M, 10 µM) turned out to be 17.5%; in the assay on Dopamine 1 (10^-7 M, 0.1 µM) it was 10.8%; in the assay on Dopamine 1 (10^-9 M, 0.001 µM), 3.9%; with Dopamine 2 (10^-5 M, 10 µM), 11.9%; in the assay with Dopamine 2 (10^-7 M, 0.1 µM) it was 4.5%; in the assay on Dopamine 2 (10^-9 M, 0.001 µM) it was 5.6%. In the assay on dopaminergic receptors, the “binding to dopaminergic sites (in words)” value was “negligible”. Also, the “sigma binding capability (in words)” value with sigma (bromhexine) is recorded as “bind to the sigma site; also recorded: high degree of active sigma binding capability”.
Take `CCN(Cc1ccccc1)C1CCCCC1.Cl` [Example 1, N-cyclohexyl-N-ethylbenzylamine hydrochloride]: the “Percent Inhibition” value in the assay with PCP (10^-5 M) turned out to be 25.1%; in the assay with PCP (10^-7 M), 7.1%; with PCP (10^-9 M), 9.4%; in the assay on Dopamine 1 (10^-5 M) it was 10.7%; with Dopamine 1 (10^-7 M) it was 5.9%; in the assay with Dopamine 1 (10^-9 M), 3.2%. Besides, the figures for the “Percent Inhibition” value with Dopamine 2 (10^-5 M), with Dopamine 2 (10^-7 M) and with Dopamine 2 (10^-9 M) were 14.8%, -1.5% and -1.4%, respectively. The “binding to dopaminergic sites (in words)” value in the assay on dopaminergic receptors is “excluded from binding at dopaminergic receptors”. The “% Displaced Haldol” value with sigma binding sites [2] (Table 1, 10^-5 M, 10 µM) is reported as 96.0%; in the assay on sigma binding sites [2] (Table 1, 10^-7 M, 0.1 µM) it was 99.1%; with sigma binding sites [2] (Table 1, 10^-9 M, 0.001 µM), 27.5%. Also, the “% Sigma Site Binding” value is given as 4.0% in the assay on sigma binding sites [2] (Table 1, 10^-5 M, 10 µM); 0.9% with sigma binding sites [2] (Table 1, 10^-7 M, 0.1 µM); 72.5% in the assay with sigma binding sites [2] (Table 1, 10^-9 M, 0.001 µM). Moreover, the “VERIFICATION % Displaced Haldol” value in the assay on sigma binding sites [2] (Table 1, 10^-5 M, 10 µM) is given as 86.7%; in the assay on sigma binding sites [2] (Table 1, 10^-7 M, 0.1 µM) it was 61.1%; in the assay with sigma binding sites [2] (Table 1, 10^-9 M, 0.001 µM) it was 22.5%. In addition, the “VERIFICATION % Sigma Site Binding” value in the assay on sigma binding sites [2] (Table 1, 10^-5 M, 10 µM) was 13.3%; with sigma binding sites [2] (Table 1, 10^-7 M, 0.1 µM), 38.9%; in the assay on sigma binding sites [2] (Table 1, 10^-9 M, 0.001 µM) it was 77.5%. Further, the figures for the “binding to the sigma binding site (in words)” value in the assay with sigma binding sites [2] and in the assay on sigma binding sites [2] (listed as N-cyclohexyl-N-ethyl 2-benzylamine) were “selectively binds to the sigma binding site” and “high degree of active sigma binding capability”, respectively.
On to `CCN(CCc1ccccc1)C1CCCCC1.Cl` [Example 2, N-cyclohexyl-N-ethyl 2-phenylethylamine hydrochloride], for which, in the assay with PCP, the “binding to PCP sites (in words)” value was “binds selectively to the sigma and PCP binding sites”. The “Percent Inhibition” value in the assay on PCP (10^-5 M) is recorded as 87.7%; in the assay with PCP (10^-7 M), 21.0%; with PCP (10^-9 M), 11.1%; with Dopamine 2 (10^-5 M), 47.2%; in the assay with Dopamine 2 (10^-7 M) it was 7.8%; with Dopamine 2 (10^-9 M), 5.9%. In addition, the “binding to dopaminergic sites (in words)” value in the assay with dopaminergic receptors is “only very weakly binds to the dopaminergic site”. The “% Displaced Haldol” value in the assay on sigma binding sites [2] (Table 3, 10^-5 M, 10 µM) was determined as 107.6%; in the assay with sigma binding sites [2] (Table 3, 10^-7 M, 0.1 µM), 84.7%; with sigma binding sites [2] (Table 3, 10^-9 M, 0.001 µM) it was 43.2%. The “% Sigma Site Binding” value in the assay on sigma binding sites [2] (Table 3, 10^-5 M, 10 µM) is recorded as -7.6%; in the assay with sigma binding sites [2] (Table 3, 10^-7 M, 0.1 µM) it was 15.3%; with sigma binding sites [2] (Table 3, 10^-9 M, 0.001 µM), 56.8%. Also, the “VERIFICATION % Displaced Haldol” value in the assay on sigma binding sites [2] (Table 3, 10^-5 M, 10 µM) amounted to 91.7%; with sigma binding sites [2] (Table 3, 10^-7 M, 0.1 µM), 69.0%; with sigma binding sites [2] (Table 3, 10^-9 M, 0.001 µM), 33.9%. Further, the “VERIFICATION % Sigma Site Binding” value is recorded as 8.3% with sigma binding sites [2] (Table 3, 10^-5 M, 10 µM); 31.0% in the assay on sigma binding sites [2] (Table 3, 10^-7 M, 0.1 µM); 66.1% with sigma binding sites [2] (Table 3, 10^-9 M, 0.001 µM). The “binding to the sigma binding site (in words)” value in the assay with sigma binding sites [2] is “binds selectively to the sigma and PCP binding sites”; in the assay on sigma binding sites [2] (listed as N-cyclohexyl-N-ethyl 2-phenylethylamine) it was “high degree of active sigma binding capability”.
`c1ccc(C2(N3CCCCC3)CCCCC2)cc1` [PCP, phencyclidine]: the “affinity for sigma binding sites (in words)” value with sigma binding sites [1] is “also bind at this site”.
